Data reported in ChEMBL document CHEMBL1150532, “Syntheses and antifilarial profile of 5-amino and 5,8-diamino-isoquinoline derivatives: A new class of antifilarial agents” (1996).

Key:
Format in all cases: functional
[1] = system: Mastomys natalensis; experiment: Compound was evaluated in vivo for microfilaricidal activity against Acanthocheilonema viteae infection in Mastomys natalensis at dose 50 mg/kg *5days (i.p.); details: route intraperitoneal
[2] = system: Mastomys natalensis; experiment: Compound was evaluated in vivo for microfilaricidal activity against Acanthocheilonema viteae infection in Mastomys natalensis; 0 represents inactive
[3] = system: Acanthocheilonema viteae; experiment: In vitro increase in lactate production at concentration 1.0 uM
[4] = system: Acanthocheilonema viteae; experiment: Antifilarial activity was measured by percent sterilization of A. viteae at dose 50 mg/kg *5days (i.p.); 0 represents inactive; details: route intraperitoneal
[5] = system: Acanthocheilonema viteae; experiment: In vitro inhibition of glucose uptake by Acanthocheilonema viteae at concentration 1.0 uM
[6] = system: Acanthocheilonema viteae; experiment: In vitro inhibition of ATP content in worms at concentration 1.0 uM
[7] = system: Acanthocheilonema viteae; experiment: In vitro inhibition of Tubulin content in worms at concentration 1.0 uM
[8] = system: Acanthocheilonema viteae; experiment: Antifilarial activity was measured by percent sterilization of A. viteae at dose 50 mg/kg *5days (i.p.); details: route intraperitoneal
[9] = system: Mastomys natalensis; experiment: Compound was evaluated in vivo for microfilaricidal activity against Acanthocheilonema viteae infection in Mastomys natalensis at dose 50 mg/kg/5days (i.p.); 0 represents inactive; details: route intraperitoneal
[10] = system: Mastomys natalensis; experiment: Compound was evaluated in vivo for microfilaricidal activity against Acanthocheilonema viteae infection in Mastomys natalensis at dose 50 mg/kg/5days (i.p.); details: route intraperitoneal
[11] = system: Mastomys natalensis; experiment: Compound was evaluated in vivo for microfilaricidal activity against Acanthocheilonema viteae infection in Mastomys natalensis
[12] = system: Acanthocheilonema viteae; experiment: Antifilarial activity was measured by percent sterilization of A. viteae at dose 50 mg/kg/5days (i.p.); 0 represents inactive; details: route intraperitoneal
[13] = system: Mastomys natalensis; experiment: Compound was evaluated in vivo for microfilaricidal activity against Acanthocheilonema viteae infection in Mastomys natalensis at dose 350 mg/kg/5 days (i.p.); details: route intraperitoneal

Row | SMILES | Activity [1] | Activity [2] | Lactate production [3] | Sterility [4] | Glucose uptake [5] | ATP content [6] | Tubulin content [7] | Sterility [8] | Activity [9] | Activity [10] | Activity [11] | Sterility [12] | Activity [13]
1 | O=[N+]([O-])c1ccc(N2CCOCC2)c2ccncc12 | 81 | 0 | 7.19 µM/mg | 0% | 6.15 µM/mg | 39.1 pmol/mg | 38.5 pmol/mg | – | – | – | – | – | –
2 | OC1CC1Nc1cccc2cnccc12 (stereo unspecified) | – | 0 | 7.42 µM/mg | – | 6.67 µM/mg | 108 pmol/mg | 70.2 pmol/mg | 31% | 0 | – | – | – | –
3 | O=C1CN(c2cccc3cnccc23)C2CC2O1 (stereo unspecified) | – | – | 6.42 µM/mg | 0% | 6.09 µM/mg | 74.2 pmol/mg | 35.4 pmol/mg | – | – | 34 | 0 | – | –
4 | Clc1ccc2c(Nc3ccc(N4CCOCC4)c4ccncc34)ccnc2c1 | – | – | 7.3 µM/mg | – | 6.26 µM/mg | 37.9 pmol/mg | 45.1 pmol/mg | – | – | 76 | 60 | 0% | –
5 | CCN(CC)C(=O)N1CCN(C)CC1.O=C(O)CC(O)(CC(=O)O)C(=O)O [DIETHYLCARBAMAZINE CITRATE] | – | – | – | – | – | – | – | – | 0 | – | – | 0% | 90
